Key:
CYP2B6 mRNA = test: CYP induction in human hepatocytes, CYP2B6 mRNA (RT-PCR); settings: human five, Gene expression Fold Induction, CYP2B6, donor seven, 1000 µM
Protocol: (§1) […] […] […] Enzyme activity for each CYP isoform was reported as a fold change over vehicle control and the percent of positive control (detailed calculation in Supplementary 1.1). Hepatocytes were harvested with a lysis buffer from RNeasy 96 Kit (Qiagen Inc., Germantown, MD, USA) to isolate RNA, which was analyzed by real-time quantitative polymerase chain reaction (RT-PCR). […] Emax (the maximal observed induction) and EC50 (the concentration that supports half-maximal induction) were estimated by non-linear regression of fold increase in CYP mRNA expression versus concentration plots.
(§2) % of positive control = [(fold change in treated sample)-1] / [(fold change in positive control)-1] × 100
(§3) Based on the gene expression, a minimum of 4-fold increase of positive control compared to vehicle control, a minimum of 2-fold increase of the test article compared vehicle control and increased in a concentration-dependent manner was considered as the cutoff for a positive signal in in vitro induction assay.

CYP1A2 = test: in vitro; settings: human; for fold induction at 48 h, 50 µM: Enzyme activity Fold Induction
Protocol: as §1
(§4) The fold of vehicle control and the percent of positive control were calculated with the formulas below:
(§5) Fold of vehicle control = CYPs activity of test compound (or positive control) treated sample / CYPs activity of vehicle control treated sample
as §2
(§6) Based on the enzyme activity, a minimum of 2-fold increase compared to vehicle control for the positive control and ≥40% of the positive control for the test article was considered as the cutoff for a positive signal in in vitro induction assay.

CYP1A2 mRNA = test: in vitro; settings: human; for fold induction at 48 h, 50 µM: Gene expression Fold Induction
Protocol: as §1, §2, §3

BCRP = target: T1, BCRP (Homo sapiens, UniProt Q9UNQ0); test: in vitro; settings: Caco-2
T1 sequence (Q9UNQ0 1-655): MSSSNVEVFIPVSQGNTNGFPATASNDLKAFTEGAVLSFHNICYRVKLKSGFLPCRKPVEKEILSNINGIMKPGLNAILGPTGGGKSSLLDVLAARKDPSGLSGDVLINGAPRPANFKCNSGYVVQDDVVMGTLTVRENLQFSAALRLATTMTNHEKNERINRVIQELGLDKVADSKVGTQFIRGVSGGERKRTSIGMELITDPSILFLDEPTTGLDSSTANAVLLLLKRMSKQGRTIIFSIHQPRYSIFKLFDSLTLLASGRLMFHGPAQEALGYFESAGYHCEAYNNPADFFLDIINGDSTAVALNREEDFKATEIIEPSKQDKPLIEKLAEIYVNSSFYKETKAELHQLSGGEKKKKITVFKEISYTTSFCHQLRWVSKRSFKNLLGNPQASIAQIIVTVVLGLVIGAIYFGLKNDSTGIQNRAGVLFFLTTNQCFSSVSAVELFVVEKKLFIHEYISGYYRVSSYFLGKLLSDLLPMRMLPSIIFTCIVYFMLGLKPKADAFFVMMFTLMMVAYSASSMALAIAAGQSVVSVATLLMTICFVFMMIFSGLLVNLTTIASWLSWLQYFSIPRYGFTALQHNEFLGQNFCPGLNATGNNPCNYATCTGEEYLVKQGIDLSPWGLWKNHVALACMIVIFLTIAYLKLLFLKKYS
Excerpt: The experimental conditions were similar to those of the permeability study.

CYP2C8 = test: in vitro; settings: human; for fold induction at 48 h, 25 µM: Enzyme activity Fold Induction
Protocol: as §1, §4, §5, §2, §6

CYP2C9 = test: in vitro; settings: human; for fold induction at 48 h, 25 µM: Enzyme activity Fold Induction
Protocol: as §1, §4, §5, §2, §6

CYP2C9 mRNA = test: CYP induction in human hepatocytes, CYP2C9 mRNA (RT-PCR); settings: for Gene expression Percent of PC (%): 25 µM
Protocol: as §1, §2, §3

CYP2C19 = test: CYP induction in human hepatocytes, CYP2C19 enzyme activity; assay type: in vitro ADME; settings: 25 µM
Protocol: as §1, §4, §5, §2, §6

CYP2C8 mRNA = test: in vitro; settings: human; for fold induction at 48 h, 25 µM: Gene expression Fold Induction
Protocol: as §1, §2, §3

Q: `CCC1(c2ccccc2)C(=O)NC(=O)NC1=O` [Phenobarbital] was tested. Which fold induction at 48 h, 1000 µM (CYP2B6 mRNA) did it give?
A: 9.45

Q: How did the “Enzyme activity Fold Induction” value (CYP1A2; female, 48 h, 50 µM) turn out when `COc1ccc2[nH]c([S+]([O-])Cc3ncc(C)c(OC)c3C)nc2c1` (stereo not shown) [Omeprazole] was run?
A: 3.37 fold

Q: What about the fold induction at 48 h, 50 µM (CYP1A2; female) of the same compound?
A: 4.95

Q: What about the fold induction at 48 h, 50 µM (CYP1A2; male) of the same compound?
A: 5.22

Q: What about the “Gene expression Fold Induction” value (CYP1A2 mRNA; female, 48 h, 50 µM) of the same compound?
A: 25.5 fold

Q: What about the fold induction at 48 h, 50 µM (CYP1A2 mRNA; female) of the same compound?
A: 15.6

Q: And the fold induction at 48 h, 50 µM (CYP1A2 mRNA; male)?
A: 20.3

Q: Which results are given for `C[C@]12CC[C@@H]3c4ccc(OS(=O)(=O)O)cc4CC[C@H]3[C@@H]1CCC2=O` [E3S, Estrone-3-sulfate, reference compound]?
A: Papp A-B of E3S (BCRP): 2.79 ×10–^6 cm/s; Papp B-A of E3S (BCRP): 77.8 ×10–^6 cm/s

Q: Which results are given for `CCOC(=O)c1ncn2c1CN(C)C(=O)c1cc(F)ccc1-2` [Flumazenil]?
A: Enzyme activity Percent of PC (%) (CYP2C8; female, 48 h, 25 µM): 3.75%; fold induction at 48 h, 25 µM (CYP2C8; female): 1.18; Enzyme activity Fold Induction (CYP2C8; male, 48 h, 25 µM): 1.39 fold; fold induction at 48 h, 25 µM (CYP2C8; male): 1.05; Enzyme activity Percent of PC (%) (CYP2C9; female, 48 h, 25 µM): 6.88%; fold induction at 48 h, 25 µM (CYP2C9; female): 1.11; Enzyme activity Fold Induction (CYP2C9; male, 48 h, 25 µM): 1.14 fold; fold induction at 48 h, 25 µM (CYP2C9; male): 1.05; Gene expression Percent of PC (%) (CYP2C9 mRNA; CYP2C9, donor eight): 12.1%; Gene expression Percent of PC (%) (CYP2C9 mRNA; CYP2C9, donor four): 19.7%; Gene expression Percent of PC (%) (CYP2C9 mRNA; CYP2C9, donor one): 25.6%; fold induction at 48 h, 25 µM (CYP2C9 mRNA; female, human): 1.83; fold induction at 48 h, 25 µM (CYP2C9 mRNA; human three, cryopreserved human hepatocytes (donor four)): 1.52; fold induction at 48 h, 25 µM (CYP2C9 mRNA; male, human, cryopreserved human hepatocytes): 1.53; Enzyme activity Percent of PC (%) (CYP2C19; CYP2C19, donor eight): -3.72%; Enzyme activity Percent of PC (%) (CYP2C19; CYP2C19, donor four): -3.91%; Enzyme activity Percent of PC (%) (CYP2C19; CYP2C19, donor one): 1.83%; fold induction at 48 h, 25 µM (CYP2C19; human three, cryopreserved human hepatocytes, probe S-(+)-mephenytoin (80 µM), CYP2C19, donor eight): 0.87; Gene expression Percent of PC (%) (CYP2C8 mRNA; female, 48 h, 25 µM): 15.4%; fold induction at 48 h, 25 µM (CYP2C8 mRNA; female): 1.89; Gene expression Fold Induction (CYP2C8 mRNA; male, 48 h, 25 µM): 0.92 fold; fold induction at 48 h, 25 µM (CYP2C8 mRNA; male): 1.05

— article PMC11211886 (Frontiers in Pharmacology, 2024)
